Reference: patent publication US8802597B2, “Herbicidal pyrimidines” (E I du Pont de Nemours and Company, priority 2003, dated 2014)
Like-named read-outs stand apart in the source and are kept apart here.

Assays:
Test in all cases: Test C pre/postemergence
Format in all cases: in vivo
[1] = tested on: common ragweed (Ambrosia elatior); conditions: Ambrosia artemisiifolia; for pest or weed control at 62 g/ha: 62 g ai/ha; for pest or weed control at 125 g/ha: 125 g ai/ha; for pest or weed control at 250 g/ha: 250 g ai/ha; for pest or weed control at 500 g/ha: 500 g ai/ha
Procedure, shortened: (§1)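 Greenhouse herbicide screen, visual readout. Compound in solvent/surfactant applied preemergence at planting or postemergence to 1- to 4-leaf plants; assessed at 12–14 days on a 0–100 control scale.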

[2] = tested on: johnsongrass (Sorghum halepense); conditions: Sorghum halepense; for pest or weed control at 62 g/ha: 62 g ai/ha; for pest or weed control at 125 g/ha: 125 g ai/ha; for pest or weed control at 250 g/ha: 250 g ai/ha; for pest or weed control at 500 g/ha: 500 g ai/ha
Procedure, shortened: as §1

kochia (Kochia scoparia) = conditions: Bassia scoparia; for pest or weed control at 62 g/ha: 62 g ai/ha; for pest or weed control at 125 g/ha: 125 g ai/ha; for pest or weed control at 250 g/ha: 250 g ai/ha; for pest or weed control at 500 g/ha: 500 g ai/ha
Procedure, shortened: as §1

[3] = tested on: common (oilseed) sunflower (Helianthus annuus); conditions: Helianthus annuus, pre-emergence, Preemergence, read-out: Plant response rating, Sunflower
Procedure, shortened: as §1

[4] = tested on: cocklebur (Xanthium strumarium); conditions: Xanthium strumarium; for pest or weed control at 125 g/ha: 125 g ai/ha; for pest or weed control at 250 g/ha: 250 g ai/ha; for pest or weed control at 500 g/ha: 500 g ai/ha
Procedure, shortened: as §1

corn (Zea mays) = conditions: Zea mays; for Corn plant response rating (crop injury, 0 = no effect, 100 = complete kill) at 62 g/ha: 62 g ai/ha; for Corn plant response rating (crop injury, 0 = no effect, 100 = complete kill) at 125 g/ha: 125 g ai/ha
Procedure, shortened: as §1

[5] = post-emergence, Postemergence, scale 0 to 100 (0 no effect, 100 complete control), read-out: Ragweed plant response rating
[6] = post-emergence, Postemergence, scale 0 to 100, read-out: Plant response rating, Ragweed
[7] = pre-emergence, Preemergence, scale 0 to 100, read-out: Plant response rating, Ragweed
[8] = post-emergence, Postemergence, scale 0 to 100 (0 no effect, 100 complete control), read-out: Johnsongrass plant response rating
[9] = post-emergence, Postemergence, scale 0 to 100, read-out: Plant response rating, Johnsongrass
[10] = pre-emergence, Preemergence, scale 0 to 100, read-out: Plant response rating, Johnsongrass
[11] = post-emergence, Postemergence, scale 0 to 100 (0 no effect, 100 complete control), read-out: Kochia plant response rating
[12] = post-emergence, Postemergence, scale 0 to 100, read-out: Plant response rating, Kochia
[13] = pre-emergence, Preemergence, scale 0 to 100, read-out: Plant response rating, Kochia
[14] = post-emergence, Postemergence, scale 0 to 100, read-out: Plant response rating, Cocklebur
[15] = pre-emergence, Preemergence, scale 0 to 100, read-out: Plant response rating, Cocklebur
[16] = post-emergence, Postemergence, scale 0 to 100 (0 no effect, 100 complete control), read-out: Corn plant response rating

## Nc1nc(C2CC2)nc(C(=O)O)c1Br [Compound 8]
[1]; [5]
  pest or weed control at 62 g/ha: 60%
  pest or weed control at 125 g/ha: 80%
[1]; [6]
  pest or weed control at 250 g/ha: 95%
  pest or weed control at 500 g/ha: 100%
[1]; pre-emergence, Preemergence, scale 0 to 100, 0 no effect, 100 complete control, read-out: Plant response rating, Ragweed
  pest or weed control at 62 g/ha: 100%
[1]; [7]
  pest or weed control at 125 g/ha: 100%
  pest or weed control at 250 g/ha: 100%
  pest or weed control at 500 g/ha: 100%
[2]; [8]
  pest or weed control at 62 g/ha: 30%
  pest or weed control at 125 g/ha: 35%
[2]; [9]
  pest or weed control at 250 g/ha: 45%
  pest or weed control at 500 g/ha: 85%
[2]; pre-emergence, Preemergence, scale 0 to 100, 0 no effect, 100 complete control, read-out: Plant response rating, Johnsongrass
  pest or weed control at 62 g/ha: 0%
[2]; [10]
  pest or weed control at 125 g/ha: 0%
  pest or weed control at 250 g/ha: 0%
  pest or weed control at 500 g/ha: 20%
Kochia (Kochia scoparia); [11]
  pest or weed control at 62 g/ha: 95%
  pest or weed control at 125 g/ha: 100%
Kochia (Kochia scoparia); [12]
  pest or weed control at 250 g/ha: 100%
  pest or weed control at 500 g/ha: 100%
Kochia (Kochia scoparia); pre-emergence, Preemergence, scale 0 to 100, 0 no effect, 100 complete control, read-out: Plant response rating, Kochia
  pest or weed control at 62 g/ha: 50%
Kochia (Kochia scoparia); [13]
  pest or weed control at 125 g/ha: 85%
  pest or weed control at 250 g/ha: 100%
  pest or weed control at 500 g/ha: 100%
[3]; 62 g ai/ha, scale 0 to 100, 0 no effect, 100 complete control
  pest or weed control at 62 g/ha: 20%
[3]; 125 g ai/ha, scale 0 to 100
  pest or weed control at 125 g/ha: 40%
[3]; 250 g ai/ha, scale 0 to 100
  pest or weed control at 250 g/ha: 100%
[3]; 500 g ai/ha, scale 0 to 100
  pest or weed control at 500 g/ha: 100%
[4]; post-emergence, Postemergence, 62 g ai/ha, scale 0 to 100 (0 no effect, 100 complete control), read-out: Cocklebur plant response rating
  pest or weed control at 62 g/ha: 80%
[4]; post-emergence, Postemergence, scale 0 to 100 (0 no effect, 100 complete control), read-out: Cocklebur plant response rating
  pest or weed control at 125 g/ha: 100%
[4]; [14]
  pest or weed control at 250 g/ha: 100%
  pest or weed control at 500 g/ha: 100%
[4]; [15]
  pest or weed control at 125 g/ha: 85%
  pest or weed control at 250 g/ha: 100%
  pest or weed control at 500 g/ha: 100%
Corn (Zea mays); [16]
  Corn plant response rating (crop injury, 0 = no effect, 100 = complete kill) at 62 g/ha: 0%
  Corn plant response rating (crop injury, 0 = no effect, 100 = complete kill) at 125 g/ha: 20%
Corn (Zea mays); post-emergence, Postemergence, 250 g ai/ha, scale 0 to 100
  Corn plant response rating (crop injury, 0 = no effect, 100 = complete kill) at 250 g/ha: 70%
Corn (Zea mays); post-emergence, Postemergence, 500 g ai/ha, scale 0 to 100
  Corn plant response rating (crop injury, 0 = no effect, 100 = complete kill) at 500 g/ha: 90%
Corn (Zea mays); pre-emergence, Preemergence, scale 0 to 100, 0 no effect, 100 complete control, read-out: Plant response rating, Corn
  Corn plant response rating (crop injury, 0 = no effect, 100 = complete kill) at 62 g/ha: 0%
Corn (Zea mays); pre-emergence, Preemergence, scale 0 to 100, read-out: Plant response rating, Corn
  Corn plant response rating (crop injury, 0 = no effect, 100 = complete kill) at 125 g/ha: 0%
